Reference: patent US5118686A, “Phenylpyrimidones” (Smith Kline & French Laboratories Limited, priority 1989, dated 1992)

Assays:
[1] = tested on: spontaneous colonic activity (distal colon segment); assay: Inhibition of spontaneous colonic activity - in vitro; set-up: species or system guinea-pig (male albino); conditions: Cavia porcellus; isolated distal colon, Krebs solution, 37° C.; read-out: IC50 (concentration of compound required to reduce spontaneous colonic activity by 50%)
Description: Male albino guinea-pigs (300-400g) were killed by a blow to the back of the head and exsanguinated. A 2cm long segment of the proximal part of the hypogastric loop of the distal colon was rapidly dissected out and placed in oxygenated (95% O2, 5% CO2) modified warm Krebs solution. The tissue was cleaned out with Krebs and the adjoining mesentery discarded. Cotton was then tied to each end and the colon was attached to a tissue holder in an organ bath containing modified oxygenated Krebs solution at 37° C. The other end of the tissue was tied to an isometric transducer and placed under 1 g tension. Force developed by the muscle was detected by the transducer, and recorded on a multitrace pen recorder. Spontaneous colonic activity, as assessed by the contraction distance over a five minute period, was subjected to computer analysis.
The tissues were allowed to settle at a resting tension of 1 g for 1 hour, during which time they were washed at 15 minute intervals. Three samples of pre-dose activity were taken and averaged. The tissues were then dosed and two samples of post-dose activity were taken. The lowest value was used to calculate the percentage relaxation, and log dose response curves were constructed. The tissues were washed 10 minutes after dosing and left for 15 minutes to settle prior to the next control period.
The concentration of compound required to reduce spontaneous colonic activity by 50% is given as the IC50.

[2] = tested on: U46619-induced bronchoconstriction; assay: Bronchodilatation - In vivo (inhibition of U46619-induced bronchoconstriction in anaesthetised guinea-pigs); set-up: species or system guinea-pig (Dunkin Hartley strain, male); conditions: Cavia porcellus, iv; i.v. bolus; U46619 infused i.v. 2.5 nmol/min; peak inhibition; read-out: BD50 (dose of compound required to reduce the U46619-induced bronchoconstriction by 50%)
Method: Male guinea-pigs of the Dunkin Hartley strain (500-600g) were anaesthetised with Sagatal (pentobarbital sodium) (60 mg/kg). Airway resistance was measured using a modification of the classical Konzett-Rossler technique (J. pharm. Methods, 13, 309-315, 1985). U46619 (9,11-methanoepoxy-PGH2) was infused i.v. at a rate of 2.5 nmol/min, this produced a steady state of bronchoconstriction (approximately 120% increase from basal airway resistance). The compound under test was administered by i.v. bolus injection, and the subsequent peak inhibition of bronchoconstriction recorded.

IC50 [1] | SMILES | ED50 [2]
2400 nM | CCCOc1ccccc1-c1nc(NC(=O)NC)cc(=O)[nH]1 [Example 5, 6-N'-methylureido-2-(2-propoxyphenyl)pyrimidin-4[3H]-one] | 8.34 µmol/kg
750 nM | CCCOc1ccccc1-c1nc(O)cc(C(N)=O)n1 [Example 15, 6-Hydroxy-2-(2-propoxyphenyl)pyrimidine-4-carboxamide] | –

Further lines, the compound ahead of its results:

SMILES | IC50 [1] | ED50 [2]
CCCOc1ccccc1-c1nc(O)cc(C#N)n1 [Example 16, 4-cyano-6-hydroxy-2-(2-propoxyphenyl)pyrimidine] | – | 6.03 µmol/kg
CCCOc1ccccc1-c1nc(O)cc(CC)n1 [Example 18, 4-Ethyl-6-hydroxy-2-(2-propoxyphenyl)pyrimidine] | 3300 nM | 9.7 µmol/kg
CCCOc1ccccc1-c1nc(O)cc(C(=O)NCC)n1 [Example 21, N-Ethyl 6-hydroxy-2-(2-propoxyphenyl)pyrimidine-4-carboxamide] | 3700 nM | –
